Experiments:
Type in all cases: functional
Staphylococcus aureus [1] = assay: Antimicrobial activity against Staphylococcus aureus clone 3-3 harboring staphylococcal cassette chromosome mec element type 2 assessed as percent susceptible isolates by kirby-bauer method
Staphylococcus aureus [2] = assay: Antimicrobial activity against Staphylococcus aureus clone 4-4 harboring staphylococcal cassette chromosome mec element type 5 assessed as percent susceptible isolates by kirby-bauer method
Staphylococcus aureus [3] = assay: Antimicrobial activity against Staphylococcus aureus clone 3-3 harboring staphylococcal cassette chromosome mec element type U1 assessed as percent susceptible isolates by kirby-bauer method
Staphylococcus aureus [4] = assay: Antimicrobial activity against Staphylococcus aureus clone 2-2 harboring staphylococcal cassette chromosome mec element type U5 assessed as percent susceptible isolates by kirby-bauer method
Staphylococcus aureus [5] = assay: Antimicrobial activity against Staphylococcus aureus clone 3-3 harboring staphylococcal cassette chromosome mec element type 4 assessed as percent susceptible isolates by kirby-bauer method
Staphylococcus aureus [6] = assay: Antimicrobial activity against Staphylococcus aureus clone 4-4 harboring staphylococcal cassette chromosome mec element type 4 assessed as percent susceptible isolates by kirby-bauer method
Staphylococcus aureus [7] = assay: Antimicrobial activity against Staphylococcus aureus clone 2-2 harboring staphylococcal cassette chromosome mec element type 5 assessed as percent susceptible isolates by kirby-bauer method
Staphylococcus aureus [8] = assay: Antimicrobial activity against Staphylococcus aureus clone 2-2 harboring staphylococcal cassette chromosome mec element type 6 assessed as percent susceptible isolates by kirby-bauer method
Staphylococcus aureus [9] = assay: Antimicrobial activity against Staphylococcus aureus clone 2-2 harboring staphylococcal cassette chromosome mec element type 1 assessed as percent susceptible isolates by kirby-bauer method
Staphylococcus aureus [10] = assay: Antimicrobial activity against Staphylococcus aureus clone 2-2 harboring staphylococcal cassette chromosome mec element type U3 assessed as percent susceptible isolates by kirby-bauer method
Staphylococcus aureus [11] = assay: Antimicrobial activity against Staphylococcus aureus clone 3-3 harboring staphylococcal cassette chromosome mec element type U6 assessed as percent susceptible isolates by kirby-bauer method
Staphylococcus aureus [12] = assay: Antimicrobial activity against Staphylococcus aureus clone 2-2 harboring staphylococcal cassette chromosome mec element type 4 assessed as percent susceptible isolates by kirby-bauer method
Staphylococcus aureus [13] = assay: Antimicrobial activity against Staphylococcus aureus clone 4-4 harboring staphylococcal cassette chromosome mec element type 2 assessed as percent susceptible isolates by kirby-bauer method
Staphylococcus aureus [14] = assay: Antimicrobial activity against Staphylococcus aureus clone 1-1 harboring staphylococcal cassette chromosome mec element type U assessed as percent susceptible isolates by kirby-bauer method
Staphylococcus aureus [15] = assay: Antimicrobial activity against Staphylococcus aureus clone 2-2 harboring staphylococcal cassette chromosome mec element type 2 assessed as percent susceptible isolates by kirby-bauer method
Staphylococcus aureus [16] = assay: Antimicrobial activity against Staphylococcus aureus clone 4-4 harboring staphylococcal cassette chromosome mec element type 1 assessed as percent susceptible isolates by kirby-bauer method
Staphylococcus aureus [17] = assay: Antimicrobial activity against Staphylococcus aureus clone 1-1 harboring staphylococcal cassette chromosome mec element type 5 assessed as percent susceptible isolates by kirby-bauer method
Staphylococcus aureus [18] = assay: Antimicrobial activity against Staphylococcus aureus clone 1-1 harboring staphylococcal cassette chromosome mec element type 4 assessed as percent susceptible isolates by kirby-bauer method
Staphylococcus aureus [19] = assay: Antimicrobial activity against Staphylococcus aureus clone 3-3 harboring staphylococcal cassette chromosome mec element type 1 assessed as percent susceptible isolates by kirby-bauer method
Staphylococcus aureus [20] = assay: Antimicrobial activity against Staphylococcus aureus clone 3-3 harboring staphylococcal cassette chromosome mec element type 6 assessed as percent susceptible isolates by kirby-bauer method
Staphylococcus aureus [21] = assay: Antimicrobial activity against Staphylococcus aureus clone 4-4 harboring staphylococcal cassette chromosome mec element type U3 assessed as percent susceptible isolates by kirby-bauer method
Staphylococcus aureus [22] = assay: Antimicrobial activity against Staphylococcus aureus clone 3-3 harboring staphylococcal cassette chromosome mec element type U8 assessed as percent susceptible isolates by kirby-bauer method

| Molecule | Activity (Staphylococcus aureus [2]) | Activity (Staphylococcus aureus [3]) | Activity (Staphylococcus aureus [4]) | Activity (Staphylococcus aureus [5]) | Activity (Staphylococcus aureus [7]) | Activity (Staphylococcus aureus [8]) | Activity (Staphylococcus aureus [9]) | Activity (Staphylococcus aureus [10]) | Activity (Staphylococcus aureus [11]) | Activity (Staphylococcus aureus [12]) | Activity (Staphylococcus aureus [13]) | Activity (Staphylococcus aureus [14]) | Activity (Staphylococcus aureus [15]) | Activity (Staphylococcus aureus [16]) | Activity (Staphylococcus aureus [17]) | Activity (Staphylococcus aureus [18]) | Activity (Staphylococcus aureus [19]) | Activity (Staphylococcus aureus [20]) | Activity (Staphylococcus aureus [21]) | Activity (Staphylococcus aureus [22]) | also measured |
| --- | --- | --- | --- | --- | --- | --- | --- | --- | --- | --- | --- | --- | --- | --- | --- | --- | --- | --- | --- | --- | --- |
| CO/N=C(\C(=O)N[C@@H]1C(=O)N2C(C(=O)O)=C(CSc3nc(=O)c(O)nn3C)CS[C@H]12)c1csc(N)n1 [CEFTRIAXONE] | 0% | 0% | 0% | 0% | 11% | 0% | 11% | 0% | 0% | 0% | 0% | 0% | 0% | 0% | 0% | 2% | 0% | 0% | 0% |  | Activity (Staphylococcus aureus [1]): 0%; Activity (Staphylococcus aureus [6]): 0% |
| CCC[C@@H]1C[C@@H](C(=O)N[C@@H]([C@H]2O[C@H](SC)[C@H](O)[C@@H](O)[C@H]2O)[C@H](C)Cl)N(C)C1 [CLINDAMYCIN] | 100% | 100% | 100% | 79% | 89% | 100% | 89% | 100% | 50% | 56% | 0% | 100% | 38% | 1% | 100% | 98% | 0% | 100% | 100% | 95% |  |
| CC[C@H]1OC(=O)[C@H](C)[C@@H](O[C@H]2C[C@@](C)(OC)[C@@H](O)[C@H](C)O2)[C@H](C)[C@@H](O[C@@H]2O[C@H](C)C[C@H](N(C)C)[C@H]2O)[C@](C)(O)C[C@@H](C)C(=O)[C@H](C)[C@@H](O)[C@]1(C)O [ERYTHROMYCIN] | 100% | 100% | 0% |  | 89% |  | 67% | 100% | 50% | 39% | 0% | 100% | 1% | 1% | 100% | 98% | 0% | 100% | 0% | 98% |  |
| CC(=O)O[C@H]1C[C@@]2(C)[C@@H](C[C@@H](O)[C@H]3[C@@]4(C)CC[C@@H](O)[C@@H](C)[C@@H]4CC[C@@]32C)/C1=C(\CCC=C(C)C)C(=O)O [FUSIDIC ACID] | 50% |  | 100% | 96% | 100% | 100% | 0% | 100% | 50% | 100% | 100% | 0% | 98% | 99% | 100% | 83% | 0% | 0% | 100% | 100% | Activity (Staphylococcus aureus [6]): 100% |
| CO[C@H]1/C=C/O[C@@]2(C)Oc3c(C)c(O)c4c(O)c(c(/C=N/N5CCN(C)CC5)c(O)c4c3C2=O)NC(=O)/C(C)=C\C=C\[C@H](C)[C@H](O)[C@@H](C)[C@@H](O)[C@@H](C)[C@H](OC(C)=O)[C@@H]1C [RIFAMPIN] | 100% | 100% | 100% | 100% | 100% | 100% | 100% | 100% | 100% | 94% | 100% | 100% | 100% | 96% | 100% | 100% | 100% | 100% | 100% | 100% | Activity (Staphylococcus aureus [1]): 100%; Activity (Staphylococcus aureus [6]): 100% |
| GENTAMICIN | 100% | 100% | 100% | 100% | 0% | 100% | 100% | 100% | 100% | 94% | 3% | 100% | 100% | 95% | 100% | 98% | 97% | 100% | 100% | 100% | Activity (Staphylococcus aureus [1]): 100%; Activity (Staphylococcus aureus [6]): 100% |

From ChEMBL document CHEMBL1687786, “Diversity of staphylococcal cassette chromosome mec elements in predominant methicillin-resistant Staphylococcus aureus clones in a small geographic area” (2010)
